From patent US20080176266A1, “Biomarkers Of Metabolic Responses To Hepatotoxicants And Carcinogens” (priority 2006, published 2008)
Marks after values point to notes of the source that are not given here.

Key:
[1] = tested on: Sprague Dawley rats; assay: GC-MS metabolomics of liver from rats exposed to clofibrate; format: in vivo; settings: rat liver, 250 mg/kg/d
Experimental: In one embodiment, the hepatotoxicant is clofibrate. Clofibrate or vehicle is administered orally (0, 50, 250 mg/kg/d) to groups of 6 rats and serum and livers are collected 6 and 24 h after either a single or 14 daily doses. Global biochemical profiles are determined by LC-MS and GC-MS and components highly perturbed by clofibrate exposure are identified by the methods described above. […] Rats (6 per group) were dosed by gavage with vehicle, 50 or 250 mg/kg clofibrate per day for 1 (single dose) or 14 days (repeated dose). These groups are referred to as “day 1” and ‘day 14 (d 1 and d14).” Liver and serum were collected at 6 and 24 h post-dosing in the day 1 and day 14. In detail, a single dose of clofibrate or vehicle was administered by gavage (0, 50 and 250 mg/kg) to groups of 18 male Sprague Dawley rats at 11 wks age. Six rats per dose group were euthanized at 6 and 24 h post-dose. Serum (for metabolomics and alanine aminotransferase (ALT), and aspartate aminotransferase (AST)), liver lobes (for histology), and frozen liver and urine (for metabolomics) were collected. Six rats per dose group were placed in metabolism cages for urine collection at −24-0 h, 0-6 h, 6-24 h and 24-48 h. These rats were removed from metabolism cages at 48 h post-dose, for blood and liver collection. The detailed study design is set forth in Chart 1. For GC-MS, liver was extracted with CHCl3:MeOH mixtures. Organic residue was derivitized with BSTFA and dried aqueous residues were derivitized with methoxyamine HCl/BSTFA. Samples were injected with 10:1 split into an Agilent 6890 gas chromatograph. A Leco Pegasus III TOFMS was used. Ions were generated at 70 eV with 3.2 mA ionization current; 25 spectra/s were recorded for 60-800 m/z. Acceleration voltage activated after 180 s solvent delay. Detector voltage: 1750 V. Data were processed with Leco ChromaTOF software. Automatic peak detection and mass spectrum deconvolution were performed using 1.33 s peak width. Peaks with S/N less than 20 were rejected. Component identification was accomplished with the NIST 98' MS library and, in some cases, verified with standards. Components with similarity greater than 600 were used for analysis.

[2] = tested on: Sprague Dawley rats; assay: Liver enzymes ALT and AST in serum; format: in vivo; settings: rat serum, 0, 50, 250 mg/kg, any groups
Experimental: (§1) In detail, a single dose of clofibrate or vehicle was administered by gavage (0, 50 and 250 mg/kg) to groups of 18 male Sprague Dawley rats at 11 wks age. Six rats per dose group were euthanized at 6 and 24 h post-dose. Serum (for metabolomics and alanine aminotransferase (ALT), and aspartate aminotransferase (AST)), liver lobes (for histology), and frozen liver and urine (for metabolomics) were collected. Six rats per dose group were placed in metabolism cages for urine collection at −24-0 h, 0-6 h, 6-24 h and 24-48 h. These rats were removed from metabolism cages at 48 h post-dose, for blood and liver collection. The detailed study design is set forth in Chart 1.

[3] = tested on: Sprague Dawley rats; assay: Liver histology; format: in vivo; settings: rat liver
Experimental: as §1, with “In detail, a single dose of clofibrate or vehicle was administered by gavage (0, 50 and 250 mg/kg) to groups of 18 male Sprague Dawley rats at 11 wks age.” left out

[4] = tested on: Sprague Dawley rats; assay: Liver-to-body weight ratio (LBR), F-tests; format: in vivo, rat; settings: Day 14 animals, with time and with dose, not the interaction of dose-time
Excerpt: Liver hypertrophy is a well-known clinical end-point of chronic clofibrate exposure, however, the biomarkers of this pathology are unknown. Using the measurements of the liver weight and the body weight of the animals, we calculated the liver-to-body weight ratio (LBR). […] Second, we discovered the components that could classify the LBR in the liver and in the serum. This was accomplished out using a step wise regression method with the LBR as the response variable and all of the components as independent variables. After an iterative selection procedure, 29 of the best components from the serum and the liver were used to build the reduced model given below: […]

[5] = tested on: rats; settings: cited from earlier work
[6] = tested on: DNA; settings: short term treatment; Gonzalez et al. (1998); cited from earlier work

With `CCOC(=O)C(C)(C)Oc1ccc(Cl)cc1` [clofibrate, ethyl-p-chloro-phenoxyisobutyrate] the “Hepatic 1-Mono linoleoylglycerol (fold change)” value ([1]; Day 1, 6 H) was 1.11*** fold change, the “Hepatic 1-Mono oleoylglycerol (fold change)” value ([1]; Day 1, 6 H) was 0.98* fold change and the “Hepatic 1-Mono palmitoylglycerol (fold change)” value ([1]; Day 1, 6 H) was 0.91** fold change. The “Hepatic 2-Mono oleoylglycerol (fold change)” value ([1]; Day 1, 6 H) was 1.12*** fold change, the “Hepatic Cholesterol (fold change)” value ([1]; Day 1, 6 H) was 1.34*** fold change and the “Hepatic Glucose (aq) (fold change)” value ([1]; Day 1, 6 H) was 0.29* fold change. For the same compound, the “Hepatic Glycine (fold change)” value ([1]; Day 1, 6 H) was 2.69** fold change, the “Hepatic Lactic acid (fold change)” value ([1]; Day 1, 6 H) was 1.56** fold change and the “Hepatic Linoleic acid (fold change)” value ([1]; Day 1, 6 H) was 0.97* fold change. The “Hepatic Palmitate (fold change)” value ([1]; Day 1, 6 H) was 0.95*** fold change, the “Hepatic Stearate (fold change)” value ([1]; Day 1, 6 H) was 1.07* fold change and the “Hepatic 1-Mono stearoylglycerol (fold change)” value ([1]; Day 1, 24 H) was 17.14** fold change. The “Hepatic Glycerol 1(3)-phosphate (fold change)” value ([1]; Day 1, 24 H) was 2.56* fold change, the “Hepatic Glycine (fold change)” value ([1]; Day 1, 24 H) was 3.42* fold change and the “Hepatic L-Aspartic acid (fold change)” value ([1]; Day 1, 24 H) was 27.88*** fold change. For the same compound, the “Hepatic Lactic acid (fold change)” value ([1]; Day 1, 24 H) was 4.41* fold change, the “Hepatic Succinic acid (Butanedioic acid) (fold change)” value ([1]; Day 1, 24 H) was 17.05** fold change and the “Hepatic l-Alanine (fold change)” value ([1]; Day 1, 24 H) was 4.74* fold change. For the same compound, the “Hepatic 1-Mono palmitoylglycerol (fold change)” value ([1]; Day 14, 6 H) was 0.04** fold change, the “Hepatic 1-Mono stearoylglycerol (fold change)” value ([1]; Day 14, 6 H) was 0.22** fold change and the “Hepatic 2-Mono stearoylglycerol (fold change)” value ([1]; Day 14, 6 H) was 0.41* fold change. The “Hepatic Arachidonic acid (fold change)” value ([1]; Day 14, 6 H) was 0.22*** fold change, the “Hepatic Cholesterol (fold change)” value ([1]; Day 14, 6 H) was 1.87** fold change and the “Hepatic Malate (fold change)” value ([1]; Day 14, 6 H) was 0.1** fold change. The “Hepatic Palmitate (fold change)” value ([1]; Day 14, 6 H) was 0.72** fold change, the “Hepatic β-Sitosterol (fold change)” value ([1]; Day 14, 6 H) was 0.37** fold change and the “Hepatic Cholesterol (fold change)” value ([1]; Day 14, 24 H) was 0.69** fold change. For the same compound, the “Hepatic Docosahexaenoic acid (fold change)” value ([1]; Day 14, 24 H) was 0.58* fold change, the “Hepatic Glucose (aq) (fold change)” value ([1]; Day 14, 24 H) was 0.39** fold change and the “Hepatic Malate (fold change)” value ([1]; Day 14, 24 H) was 0.33** fold change. The “Hepatic β-Sitosterol (fold change)” value ([1]; Day 14, 24 H) was 0.46* fold change, the “Clofibrate metabolite Propanoic acid, 2-(4-chlorophenoxy)-2-methyl- detected in liver” value ([1]; GC-MS) was “(not present in control)” and the ALT [2] was “not elevated”. The AST [2] was “not elevated”, the “Histology: hepatocellular cytologic alterations” value ([3]; after 14 doses at 250 mg/kg/day, all time points) was “hepatocellular cytologic alterations (indicating loss of glycogen and eosinophilic granular cytoplasm) were noted” and the “Histology: hepatocellular mitotic figures” value ([3]; after a single dose, 50 to 250 mg/kg) was “dose related increase and severity of hepatocellular mitotic figures”. For the same compound, the “Liver-to-body weight ratio (LBR)” value [4] was “significantly increased”, the “Microscopic changes to liver” value ([5]; 24 h after a single exposure) was “no microscopic changes” and the Liver histopathology ([5]; after 2 weeks) was “induced hypertrophy”. The DNA adducts [6] was “no DNA adducts have been observed”.
